One block for each compound: values may come before it.
How the values were obtained:
[1] = target: T1, GGCX•FIX complex (Homo sapiens, UniProt P38435); assay: cryo-EM structure, […] Å; format: binding
T1 construct: GGCX co-expressed with full-length FIX in HEK293F cells, cryo-EM in detergent micelle; FIX propeptide and GLA domain (residues 29-92) resolved; WT and K217A/K218A GGCX; with Coagulation factor IX

[2] = target: T2, GGCX^AA•FX complex (Homo sapiens, UniProt P38435, K217A/K218A); assay: cryo-EM structure, […] Å; format: binding; settings: catalytically inactive GGCX double mutant
T2 construct: GGCX K217A/K218A double mutant in complex with FX, cryo-EM; with Coagulation factor X
T2 sequence (P38435 whole entry K217A/K218A): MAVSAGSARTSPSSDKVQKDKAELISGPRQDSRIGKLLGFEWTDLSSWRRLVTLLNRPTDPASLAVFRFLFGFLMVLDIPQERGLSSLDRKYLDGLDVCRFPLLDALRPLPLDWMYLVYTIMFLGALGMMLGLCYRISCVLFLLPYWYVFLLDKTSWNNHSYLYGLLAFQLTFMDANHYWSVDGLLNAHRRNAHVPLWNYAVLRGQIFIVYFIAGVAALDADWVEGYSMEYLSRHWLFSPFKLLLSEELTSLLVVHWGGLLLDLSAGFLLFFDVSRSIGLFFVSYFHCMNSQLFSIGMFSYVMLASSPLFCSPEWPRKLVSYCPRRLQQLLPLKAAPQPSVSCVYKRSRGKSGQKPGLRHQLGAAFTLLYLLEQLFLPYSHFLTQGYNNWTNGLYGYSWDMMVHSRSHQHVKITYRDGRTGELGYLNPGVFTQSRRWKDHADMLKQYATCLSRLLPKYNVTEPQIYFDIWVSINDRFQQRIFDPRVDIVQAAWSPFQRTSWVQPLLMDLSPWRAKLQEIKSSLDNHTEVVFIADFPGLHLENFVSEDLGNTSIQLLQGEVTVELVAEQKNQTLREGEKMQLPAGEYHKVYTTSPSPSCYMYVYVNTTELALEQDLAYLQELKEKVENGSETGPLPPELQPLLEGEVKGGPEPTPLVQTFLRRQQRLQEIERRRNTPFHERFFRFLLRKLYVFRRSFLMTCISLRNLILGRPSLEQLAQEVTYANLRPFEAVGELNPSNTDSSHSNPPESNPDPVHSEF
T2 sequence (P00742 32-488 partner limits assumed): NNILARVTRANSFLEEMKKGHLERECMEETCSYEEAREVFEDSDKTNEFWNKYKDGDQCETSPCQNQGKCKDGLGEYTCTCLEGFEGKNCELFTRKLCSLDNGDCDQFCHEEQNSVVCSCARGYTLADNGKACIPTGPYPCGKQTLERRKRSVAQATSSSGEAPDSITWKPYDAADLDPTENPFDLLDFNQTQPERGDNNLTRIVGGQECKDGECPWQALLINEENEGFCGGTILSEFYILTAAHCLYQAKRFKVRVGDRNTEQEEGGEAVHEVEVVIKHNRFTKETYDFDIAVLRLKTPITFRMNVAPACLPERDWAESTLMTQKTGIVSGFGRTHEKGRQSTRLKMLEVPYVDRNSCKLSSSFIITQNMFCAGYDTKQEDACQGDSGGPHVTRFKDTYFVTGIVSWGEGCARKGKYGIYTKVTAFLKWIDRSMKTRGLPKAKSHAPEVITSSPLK

[3] = target: T3, GGCX•FIX complex (Homo sapiens, UniProt P38435, K217A/K218A); assay: cryo-EM structure, […] Å; format: binding; settings: catalytically inactive GGCX double mutant
T3 construct: GGCX co-expressed with full-length FIX in HEK293F cells, cryo-EM in detergent micelle; FIX propeptide and GLA domain (residues 29-92) resolved; WT and K217A/K218A GGCX; with Coagulation factor IX
T3 sequence (P38435 whole entry K217A/K218A, the tested form may be a part): as the sequence (P38435 whole entry K217A/K218A) above
T3 sequence (P00740 29-461 partner): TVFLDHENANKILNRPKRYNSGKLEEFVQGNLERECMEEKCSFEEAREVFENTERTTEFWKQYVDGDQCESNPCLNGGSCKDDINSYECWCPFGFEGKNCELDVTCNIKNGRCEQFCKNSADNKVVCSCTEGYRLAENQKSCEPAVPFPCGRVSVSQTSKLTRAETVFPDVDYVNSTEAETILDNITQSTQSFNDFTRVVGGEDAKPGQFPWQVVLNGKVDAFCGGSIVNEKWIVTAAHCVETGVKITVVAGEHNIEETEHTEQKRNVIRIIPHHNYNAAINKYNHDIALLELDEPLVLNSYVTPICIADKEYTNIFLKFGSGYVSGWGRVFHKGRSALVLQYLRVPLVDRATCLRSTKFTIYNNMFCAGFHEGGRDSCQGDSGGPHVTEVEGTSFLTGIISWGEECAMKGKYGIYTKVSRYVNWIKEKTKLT

[4] = target: T4, GGCX (Homo sapiens, UniProt P38435); assay: binding assay, method not told in main text (Fig. S9); settings: homologue not told in main text
T4 construct: Flag-tagged GGCX used in pull-downs
T4 sequence (P38435 2-758): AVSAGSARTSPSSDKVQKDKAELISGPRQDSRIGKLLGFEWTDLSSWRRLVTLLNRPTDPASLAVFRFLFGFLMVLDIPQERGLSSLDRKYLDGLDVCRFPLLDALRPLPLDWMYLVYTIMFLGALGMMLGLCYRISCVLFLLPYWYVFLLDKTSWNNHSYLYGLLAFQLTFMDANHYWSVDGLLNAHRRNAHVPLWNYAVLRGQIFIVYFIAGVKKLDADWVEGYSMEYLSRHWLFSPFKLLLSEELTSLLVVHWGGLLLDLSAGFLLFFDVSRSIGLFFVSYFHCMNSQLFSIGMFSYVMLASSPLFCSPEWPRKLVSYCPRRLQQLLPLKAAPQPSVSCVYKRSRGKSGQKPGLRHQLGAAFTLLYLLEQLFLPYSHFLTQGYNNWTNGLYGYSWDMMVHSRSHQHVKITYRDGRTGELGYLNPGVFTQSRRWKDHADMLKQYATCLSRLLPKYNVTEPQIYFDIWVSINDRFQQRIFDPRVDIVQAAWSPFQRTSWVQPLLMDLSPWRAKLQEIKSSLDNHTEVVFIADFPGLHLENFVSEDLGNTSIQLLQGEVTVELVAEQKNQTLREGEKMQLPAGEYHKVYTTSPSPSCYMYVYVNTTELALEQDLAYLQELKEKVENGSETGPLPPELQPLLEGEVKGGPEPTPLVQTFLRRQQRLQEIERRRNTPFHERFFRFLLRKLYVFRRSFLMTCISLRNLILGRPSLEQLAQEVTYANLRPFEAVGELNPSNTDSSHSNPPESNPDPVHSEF

[5] = target: T4, GGCX; assay: binding assay, method not told in main text (Fig. S8); settings: form and homologue of vitamin K not told in main text

T1 sequence (P38435 whole entry, the tested form may be a part): as the sequence (P38435 whole entry K217A/K218A) above, with A217K, A218K counted along it
T1 sequence (P00740 29-461 partner): as the sequence (P00740 29-461 partner) above

Compound: CC(C)=CCC/C(C)=C/CC/C(C)=C/CC/C(C)=C/Cc1c(C)c(O)c2ccccc2c1O [MKH2-4]
cryo-EM structure, 2.78 Å ([1]; co-purified endogenous vitamin K, MK-4 by LC-MS/MS, ligand modelled by superposition with the K217A/K218A complex): Superimposing GGCX^WT•FIX onto GGCX^AA•FIX facilitated modeling of MKH2-4 into the WT binding pocket
cryo-EM structure, 2.58 Å [2]: unambiguous assignment of the bound molecule as MK-4 hydroquinone (MKH2-4)
cryo-EM structure, 2.59 Å [3]: unambiguous assignment of the bound molecule as MK-4 hydroquinone (MKH2-4)

Compound: CC(C)CCC[C@@H](C)[C@H]1CC[C@H]2[C@@H]3CC=C4C[C@@H](O)CC[C@]4(C)[C@H]3CC[C@]12C [cholesterol]
cryo-EM structure, 2.78 Å ([1]; co-purified lipid, which deposited model holds it is not told explicitly): A well-resolved co-purified cholesterol was also observed

Kd [4]: ~8.19 µM
Compound: VKO

Kd [5]: ~850 nM
Compound: vitamin K
